# From US6313179A, “Treatment of hyperproliferative skin disorders with C18 to C20 aliphatic alcohols” (Avanir Pharmaceuticals, priority 1998, dated 2001)
# “Also recorded” adds a separate entry of the source. Read-outs that look alike come from different tables or passages of the source.
# How the values were obtained:
# [1] = tested on: Human keloid fibroblasts; assay: Antiproliferative activity of n-docosanol in keloid cells (Example 1, viable cell count); assay type: cell-based; settings: 15 mM; for inhibition of keloid cell growth in vitro (in words): cultured keloid / hypertrophic fibroblasts; for activity at 15000 µM / cells/well: Table 1; for activity at 15000 µM: compared to cells incubated with no addition, read-out: % control
# Description: (§1) Human keloid fibroblasts were obtained from the American Type Culture Collection (Rockville, Md.) (CRL 1762). n-Docosanol (300 mM) was suspended in the nonionic surfactant Pluronic F-68 (12 mM) as described previously (Katz et al., Proc. Natl. Acad. Sci. U.S.A., 88:10825-10829, 1991, hereby incorporated by reference). A vehicle control was prepared using the same procedure except n-docosanol was omitted. Keloid cells (2.7×10^4per well) were added to 16 mm wells containing DMEM supplemented with 10% fetal calf serum (FCS), sodium pyruvate, L-glutamine and penicillin/streptomycin. n-Docosanol (15 mM) or the corresponding Pluronic F-68 control (0.6 mM) was added (total volume=2.0 ml). Cells were harvested after incubation for 72 and 168 hours at 37° C. in a humidified 10% CO2 incubator. The number of viable cells was determined by trypan blue staining.
# [2] = tested on: keloid cells; assay: Comparison of n-docosanol effect between keloid and normal cells: keloid cells (Example 2); assay type: cell-based, Human; settings: 15 mM; for inhibition at 15000 µM / activity at 15000 µM: Homo sapiens; for inhibition at 15000 µM: read-out: inhibition of number of keloid cells per well; for activity at 15000 µM / cells/well: Table 2; for activity at 15000 µM: compared to cells incubated with no addition, read-out: % control
# Description: as §1
# Human fetal lung cells (HFL; ATCC CCL 153) and keloid cells (5×10^4 cells/well) were separately added to 16 mm wells and treated as described in Example 1. The results are shown in Tables 2 (keloid cells) and 3 (human fetal lung cells).
# [3] = tested on: Human keloid fibroblasts; assay: Proliferation study, keloid cells (Example 3); assay type: cell-based; settings: 3 mM
# Description: (§2) Human keloid fibroblasts, normal control skin fibroblasts and Vero cells were obtained from ATCC. n-Docosanol (30 mM) was suspended in Pluronic F-68 (1.2 mM) as described previously (Katz et al., ibid). A vehicle control was prepared using the same procedure except for the omission of n-docosanol. Radiolabeled n-[1-^14 C] docosanol suspension was prepared as described by Katz et al. (ibid.). Cells were resuspended in 1.2×10^6 cells/ml in DMEM supplemented with 10% fetal calf serum, sodium pyruvate, L-glutamine and penicillin-streptomycin. Cell suspension (0.5 ml) was added to each 35 mm well containing 1.3 ml media, followed by addition of 0.2 ml radiolabeled n-docosanol suspension (final n-docosanol concentration=3 mM). After 24 hours at 37° C. in humidified 10% CO2, the suspension was removed, wells were washed extensively with saline and cells were solubilized for scintillation counting by incubation with 0.5 ml trypsin for 15 min at 37° C. Solubilized cells were counted in a Beckman LS6000 scintillation counter. Samples were corrected for nonspecific binding to plates by subtracting values obtained in control wells lacking cells. To determine cell number, duplicate plates were treated with non-radiolabeled n-docosanol or control suspension at the same concentration or were left untreated. The number of viable cells was determined by trypan blue staining.
# [4] = tested on: normal skin fibroblast (ATCC CRL 1900) cells; assay: Proliferation study, normal skin fibroblasts (Example 3); assay type: cell-based
# Description: The following experiment examined the effect of n-docosanol on cell proliferation and quantitation of n-[1-^14 C]docosanol binding to keloid, Vero (normal African green monkey kidney; ATCC CCL 81) and normal skin fibroblast (ATCC CRL 1900) cells.
# as §2
# [5] = tested on: Human keloid fibroblasts; assay: Radiolabeled n-docosanol binding to keloid cells (Example 3); assay type: cell-based; settings: 24 hours
# Description: as §2
# [6] = tested on: keloid scarring; assay: Treatment of keloid scar formation with n-docosanol cream, case report (Example 4); assay type: in vivo, Human
# From the text: The patient presented with a one year history of progressive bilateral facial keloid scarring. The precise cause of injury is unknown, but appears to have been initiated as a result of work-relatedexposure to some aerosolized irritant at a high rise building construction site. During the time of exposure, the patient was working in an area in which noxious fumes were known to exist, and they were wearing a filtration face mask for protection against inhalation exposure. Since the resulting wounds occurred in a pattern which appeared to outline the edges of the protective face mask, the injury may reflect some type of chemical burn resulting from concentration of aerosolized irritants with perspiration at the edge of the face mask.
# During the ensuing year after onset of this process, the patient was seen on several occasions in the dermatology division of a major local hospital and attempts were made to arrest the process by intradermal steroid injections at the affected sites. This treatment approach was ineffective. When the patient was first seen by the inventors, they had extensive and disfiguring bilateral scars on the face and a large ulcerated lesion at the lower end of the process on the right side of the face. There was keloid scarring on both the right and left sides of the face manifested as typical "ropey and cord-like" tissue deposition and depigmentation. The right side of the face was noticeably swollen presumably as a result of the active ulceration process at the lower end of the lesions. The patient complained of pain along both areas of scarring, particularly at the more distal ends of the lesions. They admitted to social withdrawal as a result of embarrassment about their appearance and extreme frustration about the apparent futility of obtaining any help to arrest or reverse the process.
# After thoroughly explaining the experimental aspects of the therapeutic regimen, the patient volunteered to enter a study in which cream containing either 15% or 10% n-docosanol as active ingredient was to be applied to the affected areas. These topical cream formulations are described in U.S. Pat. No. 5,534,554, the entire contents of which are incorporated by reference. Initially, applications of cream containing 15% n-docosanol were made three times daily. This cream formulation contained, in addition to 15% n-docosanol, […], 5.0% sucrose cocoate, 8.0% mineral oil NF, 5.0% propylene glycol USP, 2-ethyl-1,3-hexanediol and 58.3% purified water (all weight percent). After one month on this regimen, the patient was changed to cream containing 10% n-docosanol and the application frequency was reduced to two times daily, after showering in the morning and just before bed in the evening. This cream composition contained, in addition to 10% n-docosanol,5.0% sucrose stearates, 8.0% mineral oil NF, 5.0% propylene glycol USP, 2.7% benzyl alcohol NF and 69.3% purified water.
# [7] = 15% cream three times daily, within 48 hours
# [8] = 15% cream, by the end of the second week, patient perception
smiles,measurement,setting,value
CCCCCCCCCCCCCCCCCCCCCCO [n-docosanol],inhibition of keloid cell growth in vitro (in words),[1],favored by low cell densities and longer incubation times and is concentration-dependent; also recorded: dramatic inhibition of keloid cell growth
same,inhibition of keloid cell growth in vitro (in words),[1]; listed as n-Docosanol,exhibits antiproliferative activity against cultured hypertrophic fibroblasts
same,inhibition at 15000 µM,"[1]; Homo sapiens, Fibroblast, 168 hours, compared to no addition, read-out: inhibition of cell growth",76%
same,activity at 15000 µM,"[1]; Homo sapiens, Fibroblast, 72 hours",103%
same,activity at 15000 µM,"[1]; Homo sapiens, Fibroblast, 168 hours",24%
same,cells/well,[1]; 72 hours,3.3 × 10^4 cells/well
same,cells/well,[1]; 168 hours,1.0 × 10^4 cells/well
same,inhibition at 15000 µM,[2]; 72 hours,36%
same,inhibition at 15000 µM,[2]; 168 hours,85%
same,activity at 15000 µM,[2]; 72 hours,64%
same,activity at 15000 µM,[2]; 168 hours,15%
same,cells/well,[2]; 72 hours,1.1 × 10^4 cells/well
same,cells/well,[2]; 168 hours,0.4 × 10^4 cells/well
same,inhibition at 3000 µM,"[3]; Homo sapiens, Fibroblast, 24 h, one day incubation, read-out: reduction of number of keloid cells",57%
same,activity at 3000 µM,"[3]; Homo sapiens, Fibroblast, Table 4, Keloid, 24 hours, compared to cells incubated with no addition, read-out: % ctrl",43%
same,No. cells,"[3]; Table 4, Keloid, 24 hours",1.6 × 10^5 cells
same,number of CRL-1900 normal skin fibroblasts (in words),"[4]; 3 mM, one day incubation",not decreased
same,activity at 3000 µM,"[4]; Skin fibroblast, Table 4, CRL-1900, 3 mM, 24 hours, compared to cells incubated with no addition, read-out: % ctrl",98%
same,No. cells,"[4]; Table 4, CRL-1900, 3 mM, 24 hours",5.4 × 10^5 cells
same,growth of normal cells (in words),"[4]; under the tissue culture conditions used, general statement on normal cells",unaffected
same,amount of radiolabeled n-docosanol bound to keloid as compared to CRL 1900 cells,"[5]; 3 mM, vs CRL 1900",About three
same,Binding per 10^6 cells,"[5]; Table 4, Keloid, n-[1-14C]docosanol 3 mM",45.5 μg
same,extent of elevation of the keloid scarring,"[6]; 15% cream one month, then 10% cream twice daily, three months",clear reduction in the extent of elevation of the keloid scarring
same,pain around the lesions,"[6]; 15% cream three times daily, almost immediately after onset of therapy",significant diminution in pain
same,granulation within the ulcerated lesion,[6]; [7],onset of granulation
same,swelling on the right side of the face,[6]; [7],significant reduction in swelling
same,suppleness of the overlying dermis,[6]; [8],greater suppleness of the overlying dermis
same,tightness and thickness of the keloids,[6]; [8],diminution in tightness and thickness of the keloids
same,pigmentation in the affected areas,"[6]; 15% then 10% cream, one year",almost complete return to normal pigmentation
same,ropey and cord-like elevations,"[6]; 15% then 10% cream, one year",a flattening of the previously ropey and cord-like elevations
same,scar tissue,"[6]; 15% then 10% cream, one year",significant reduction of scar tissue
same,skin pigmentation,"[6]; 15% then 10% cream, three months",considerable improvement in skin pigmentation
same,scar defect at the site of the healed ulcerated lesion,"[6]; 15% then 10% cream, three months, compared to right temple line scar",much smaller scar defect
same,adverse reactions,[6]; during the course of treatment,no adverse reactions
same,keloid formation in a patient (in words),[6]; patient for whom other treatments had not been successful,significantly reduced hyperproliferative keloid formation
